{
  "source": "the supplement of paper PMC11208160",
  "data": [
    {"test": "recombinant UMI read abundance after kanamycin selection (control-corrected) (log10(CPM+1)); higher = more efficient recombination; extreme values may be limits of the assay; sequences stand for … in AGTGCAGAGAAAATCGGCCAGTTTTCTCTGCCTGCAGTCCGCATGCCGTGGGACCCCTTGGGTTCTAACCTGTTGCCTAGATTTATGCAGCGGACTGCCTTTCTCCCAAAGTGATAAACCGG…AGGTTGGTTTCACT; site = the 11-nt donor", "summary_of_the_method": "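Sequenced counts of recombinant UMIs were turned into CPM, averaged across replicates and scaled with control-derived factors. The reported figure is log10(CPM+1). Those UMIs, each 12 nt long, tagged donor and donor-binding-loop pairs on a plasmid with a promoterless kanamycin gene, screened as a pool in Escherichia coli with IPTG (0.07 mM) plus kanamycin or without selection.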", "values": [
      {"sequence": "GATAATCCATGGACCGGTTTTCCCGGTAATCCGTATTTGCT (site GATGATCCTAG)", "recombinant UMI read abundance (log10)": 0},
      {"sequence": "GATAATCCATGGACCGGTTTTCCCGGTAATCCGTATTTGCT (site GATTATCCTAG)", "recombinant UMI read abundance (log10)": 0},
      {"sequence": "GATACGTCATGGACCGGTTTTCCCGGTAATCCGTATTTGGT (site GATACGTCTAC)", "recombinant UMI read abundance (log10)": 1.36},
      {"sequence": "GATAGAACATGGACCGGTTTTCCCGGTAATCCGTATTTGGC (site GATAGAACTGC)", "recombinant UMI read abundance (log10)": 1.7},
      {"sequence": "GATAGAACATGGACCGGTTTTCCCGGTAATCCGTATTTGGC (site GCTAGAACTGC)", "recombinant UMI read abundance (log10)": 0},
      {"sequence": "GATAGAACATGGACCGGTTTTCCCGGTAATCCGTATTTGGC (site GGTAGAACTGC)", "recombinant UMI read abundance (log10)": 0},
      {"sequence": "GATAGAACATGGACCGGTTTTCCCGGTAATCCGTATTTGGC (site GTTAGAACTGC)", "recombinant UMI read abundance (log10)": 0},
      {"sequence": "GATCAGACATGGACCGGTTTTCCCGGTAATCCGTATTTGAA (site GATCAGACTTT)", "recombinant UMI read abundance (log10)": 0.431},
      {"sequence": "GATCAGCCATGGACCGGTTTTCCCGGTAATCCGTATTTGCC (site GATCAGCCTGG)", "recombinant UMI read abundance (log10)": 0.649},
      {"sequence": "GATCAGCCATGGACCGGTTTTCCCGGTAATCCGTATTTGGT (site GATCAGCCTAC)", "recombinant UMI read abundance (log10)": 0.00497},
      {"sequence": "GATCGGACATGGACCGGTTTTCCCGGTAATCCGTATTTGAC (site GATAGGACTGT)", "recombinant UMI read abundance (log10)": 0},
      {"sequence": "GATCGGACATGGACCGGTTTTCCCGGTAATCCGTATTTGAC (site GATCGGACTGT)", "recombinant UMI read abundance (log10)": 1.11},
      {"sequence": "GATCGGACATGGACCGGTTTTCCCGGTAATCCGTATTTGAC (site GATGGGACTGT)", "recombinant UMI read abundance (log10)": 0},
      {"sequence": "GATCGGACATGGACCGGTTTTCCCGGTAATCCGTATTTGAC (site GATTGGACTGT)", "recombinant UMI read abundance (log10)": 0},
      {"sequence": "GATCTCACATGGACCGGTTTTCCCGGTAATCCGTATTTGAT (site GAACTCACTAT)", "recombinant UMI read abundance (log10)": 0.831},
      {"sequence": "GATCTCACATGGACCGGTTTTCCCGGTAATCCGTATTTGAT (site GACCTCACTAT)", "recombinant UMI read abundance (log10)": 0.0659},
      {"sequence": "GATCTCACATGGACCGGTTTTCCCGGTAATCCGTATTTGAT (site GAGCTCACTAT)", "recombinant UMI read abundance (log10)": 0.00697},
      {"sequence": "GATCTCACATGGACCGGTTTTCCCGGTAATCCGTATTTGAT (site GATCTCACTAT)", "recombinant UMI read abundance (log10)": 0.574},
      {"sequence": "GATCTTCCATGGACCGGTTTTCCCGGTAATCCGTATTTGAT (site GATCTTCCTAT)", "recombinant UMI read abundance (log10)": 0.048},
      {"sequence": "GATGCAACATGGACCGGTTTTCCCGGTAATCCGTATTTGAT (site GATGCAACTAT)", "recombinant UMI read abundance (log10)": 0.357},
      {"sequence": "GATGTAGCATGGACCGGTTTTCCCGGTAATCCGTATTTGCG (site GATGTAGCTCG)", "recombinant UMI read abundance (log10)": 1.72},
      {"sequence": "GATGTGTCATGGACCGGTTTTCCCGGTAATCCGTATTTGAA (site GATGTGTCTTT)", "recombinant UMI read abundance (log10)": 2.22},
      {"sequence": "GATGTTGCATGGACCGGTTTTCCCGGTAATCCGTATTTGCT (site GATGTTGCTAG)", "recombinant UMI read abundance (log10)": 2.51},
      {"sequence": "GATTAAACATGGACCGGTTTTCCCGGTAATCCGTATTTGCG (site GATTAAACTCG)", "recombinant UMI read abundance (log10)": 0.992},
      {"sequence": "GATTAGACATGGACCGGTTTTCCCGGTAATCCGTATTTGAC (site GATTAGACTGT)", "recombinant UMI read abundance (log10)": 2.76},
      {"sequence": "GATTAGACATGGACCGGTTTTCCCGGTAATCCGTATTTGAC (site GATTCGACTGT)", "recombinant UMI read abundance (log10)": 0},
      {"sequence": "GATTAGACATGGACCGGTTTTCCCGGTAATCCGTATTTGAC (site GATTGGACTGT)", "recombinant UMI read abundance (log10)": 0},
      {"sequence": "GATTAGACATGGACCGGTTTTCCCGGTAATCCGTATTTGAC (site GATTTGACTGT)", "recombinant UMI read abundance (log10)": 0},
      {"sequence": "GATTATGCATGGACCGGTTTTCCCGGTAATCCGTATTTGGA (site AATTATGCTTC)", "recombinant UMI read abundance (log10)": 0.871},
      {"sequence": "GATTATGCATGGACCGGTTTTCCCGGTAATCCGTATTTGGA (site CATTATGCTTC)", "recombinant UMI read abundance (log10)": 1.13},
      {"sequence": "GATTATGCATGGACCGGTTTTCCCGGTAATCCGTATTTGGA (site GATTATGCTTC)", "recombinant UMI read abundance (log10)": 0.861},
      {"sequence": "GATTATGCATGGACCGGTTTTCCCGGTAATCCGTATTTGGA (site TATTATGCTTC)", "recombinant UMI read abundance (log10)": 0.882},
      {"sequence": "GATTCATCATGGACCGGTTTTCCCGGTAATCCGTATTTGAG (site GATTCATCTCT)", "recombinant UMI read abundance (log10)": 1.31},
      {"sequence": "GATTGGCCATGGACCGGTTTTCCCGGTAATCCGTATTTGCG (site GATTGGCCTCG)", "recombinant UMI read abundance (log10)": 0.115},
      {"sequence": "GATTGTACATGGACCGGTTTTCCCGGTAATCCGTATTTGAC (site GATTGAACTGT)", "recombinant UMI read abundance (log10)": 0},
      {"sequence": "GATTGTACATGGACCGGTTTTCCCGGTAATCCGTATTTGAC (site GATTGCACTGT)", "recombinant UMI read abundance (log10)": 0},
      {"sequence": "GATTGTACATGGACCGGTTTTCCCGGTAATCCGTATTTGAC (site GATTGGACTGT)", "recombinant UMI read abundance (log10)": 0},
      {"sequence": "GATTGTACATGGACCGGTTTTCCCGGTAATCCGTATTTGAC (site GATTGTACTGT)", "recombinant UMI read abundance (log10)": 0.604}
    ]}
  ]
}
